According to ChEMBL document CHEMBL2346628, “Real-time analysis of membrane permeabilizing effects of oleanane saponins” (Bioorg Med Chem, 2013):
Calls of active or inactive are those of the source. The calls are words filed in the database; no cut-off is given here.

Experiments:
[1] = Hemolytic activity against human RBC at 12 uM after 30 mins relative to control; format: ADME, cell-based, Erythrocyte
[2] = Hemolytic activity against human RBC at 6 uM after 30 mins relative to control; format: ADME, cell-based, Erythrocyte; conditions: red blood cells (RBC), read-out: Activity
[3] = tested on: ECV-304; test: Membrane permeabilization effect on lysosome of human ECV304 cells assessed as induction of membrane lysis at 24 to 48 uM after 1 hr by N-Acetylglucosaminidase release assay; format: functional, cell-based
[4] = tested on: ECV-304; test: Membrane permeabilization effect on lysosome of human ECV304 cells assessed as induction of membrane lysis up to 6 uM after 1 hr by N-Acetylglucosaminidase release assay; format: functional, cell-based
[5] = tested on: ECV-304; test: Membrane permeabilization effect on human ECV304 cells assessed as increase in propidium iodide uptake at 12 uM after 1 hr by FACS flow cytometric analysis; format: functional, cell-based
[6] = tested on: ECV-304; test: Membrane permeabilization effect on human ECV304 cells assessed as induction of membrane lysis at 48 uM after 1 hr; format: functional, cell-based
[7] = tested on: ECV-304; test: Membrane permeabilization effect on human ECV304 cells assessed as normalized cell index at 12 to 24 uM measured every 15 secs for 3 hrs by real time impedance-based plate reader analysis relative to control relative to control; format: functional
[8] = tested on: ECV-304; test: Membrane permeabilization effect on human ECV304 cells assessed as normalized cell index at 6 uM measured every 15 secs for 3 hrs by real time impedance-based plate reader analysis relative to control; format: functional
[9] = tested on: ECV-304; test: Membrane permeabilization effect on human ECV304 cells at 3 uM measured every 15 secs for 3 hrs by real time impedance-based plate reader analysis; format: functional, cell-based
[10] = Hemolytic activity against human RBC at 48 uM after 30 mins; format: ADME, cell-based; conditions: erythrocyte, 0.5 h
[11] = Hemolytic activity against human RBC at 24 uM after 30 mins relative to control; format: ADME, cell-based, Erythrocyte
[12] = Hemolytic activity against human RBC up to 12 uM after 30 mins; format: ADME, cell-based; conditions: erythrocyte, 0.5 h
[13] = tested on: ECV-304; test: Membrane permeabilization effect on lysosome of human ECV304 cells assessed as induction of membrane lysis at 48 uM after 1 hr by N-Acetylglucosaminidase release assay; format: functional, cell-based
[14] = tested on: ECV-304; test: Membrane permeabilization effect on human ECV304 cells assessed as increase in propidium iodide uptake at 24 to 48 uM after 1 hr by FACS flow cytometric analysis; format: functional, cell-based
[15] = tested on: ECV-304; test: Membrane permeabilization effect on human ECV304 cells at 12 to 24 uM measured every 15 secs for 3 hrs by real time impedance-based plate reader analysis; format: functional, cell-based
[16] = tested on: ECV-304; test: Membrane permeabilization effect on human ECV304 cells at 6 uM measured every 15 secs for 3 hrs by real time impedance-based plate reader analysis; format: functional, cell-based
[17] = tested on: ECV-304; test: Cytotoxicity against human ECV304 cells at 24 uM after 3 hrs; format: cell-based; conditions: ecv-304, 3 h
[18] = tested on: ECV-304; test: Membrane permeabilization effect on human ECV304 cells assessed as normalized cell index at 24 uM measured every 15 secs for 3 hrs by real time impedance-based plate reader analysis relative to control; format: functional
[19] = tested on: ECV-304; test: Membrane permeabilization effect on human ECV304 cells assessed as increase in propidium iodide uptake at 24 uM after 1 hr by FACS flow cytometric analysis; format: functional, cell-based
[20] = tested on: ECV-304; test: Membrane permeabilization effect on human ECV304 cells up to 12 uM measured every 15 secs for 3 hrs by real time impedance-based plate reader analysis; format: functional, cell-based
[21] = red blood cells (RBC), read-out: Activity

CC(=O)O[C@H]1[C@H](O[C@@H]2OC[C@@H](O)[C@H](O)[C@H]2O)[C@@H](O)[C@H](O[C@@H]2[C@H](O)[C@@H](O[C@@H]3O[C@@H](C)[C@H](O[C@@H]4OC[C@@H](O)[C@H](O[C@@H]5OC[C@@H](O)[C@H](O)[C@H]5O)[C@H]4O)[C@@H](O)[C@H]3O)[C@H](OC(=O)[C@]34CCC(C)(C)C[C@H]3C3=CC[C@@H]5[C@@]6(C)CC[C@H](O[C@H]7O[C@H](C(=O)O)[C@@H](O)[C@H](O[C@@H]8OC[C@@H](O)[C@H](O)[C@H]8O)[C@H]7O[C@@H]7O[C@H](CO)[C@H](O)[C@H](O)[C@H]7O)[C@@](C)(C=O)[C@@H]6CC[C@@]5(C)[C@]3(C)C[C@H]4O)O[C@@H]2C)O[C@@H]1C
Activity ([1]; erythrocyte, 0.5 h, 12 µM): Toxic | hemolysis at 0.5 h, 6 µM [2]: 61% | Activity [3]: Active | Activity [4]: inactive | Activity [5]: Active | Activity [6]: Active | fold change (FC) [7]: 0 | fold change (FC) [8]: 0.6 | Activity [9]: inactive

C[C@@H]1O[C@@H](O[C@H]2[C@H](OC(=O)[C@]34CCC(C)(C)C[C@H]3C3=CC[C@@H]5[C@@]6(C)CC[C@H](O[C@H]7O[C@H](C(=O)O)[C@@H](O)[C@H](O[C@@H]8OC[C@@H](O)[C@H](O)[C@H]8O)[C@H]7O[C@@H]7O[C@H](CO)[C@H](O)[C@H](O)[C@H]7O)[C@@](C)(C=O)[C@@H]6CC[C@@]5(C)[C@]3(C)CC4)O[C@H](C)[C@H](O[C@@H]3O[C@H](C)[C@@H](O)[C@H](O)[C@H]3O)[C@@H]2O)[C@H](O)[C@H](O)[C@H]1O[C@@H]1OC[C@@H](O)[C@H](O[C@@H]2OC[C@@H](O)[C@H](O)[C@H]2O)[C@H]1O
Activity [10]: Toxic | hemolysis at 0.5 h, 24 µM [11, 21]: 30% | Activity [12]: Non-toxic | Activity [4]: inactive | Activity [13]: inactive | Activity [14]: Active | Activity [15]: inactive | Activity [16]: Active

CCC(C)C(CC(O)CC(=O)O[C@H]1[C@@H](O)[C@@H](C)O[C@@H](OC(=O)[C@]23CCC(C)(C)C[C@H]2C2=CC[C@@H]4[C@@]5(C)CC[C@H](O[C@H]6O[C@H](C(=O)O)[C@@H](O)[C@H](O[C@@H]7OC[C@@H](O)[C@H](O)[C@H]7O)[C@H]6O[C@@H]6O[C@H](CO)[C@H](O)[C@H](O)[C@H]6O)[C@@](C)(C=O)[C@@H]5CC[C@@]4(C)[C@]2(C)C[C@H]3O)[C@@H]1O[C@@H]1O[C@@H](C)[C@H](O[C@@H]2OC[C@@H](O)[C@H](O[C@@H]3OCC(O)(O)[C@H]3O)[C@H]2O)[C@@H](O[C@@H]2O[C@H](CO)[C@@H](O)[C@H](O)[C@H]2O)[C@H]1O)OC(=O)CC(O)CC(O[C@@H]1O[C@@H](CO)[C@H](O)[C@H]1O[C@@H]1O[C@@H](C)[C@H](O)[C@@H](O)[C@H]1O)C(C)CC (stereo in doubt; form 1) [listing 1 of 2 here]
Activity ([11]; erythrocyte, 0.5 h, 24 µM): Toxic | hemolysis at 0.5 h, 12 µM [1, 21]: 67% | hemolysis at 0.5 h, 6 µM [2]: 27% | Activity [17]: Toxic | fold change (FC) [18]: 0.1

CCC(C)C(CC(O)CC(=O)O[C@H]1[C@@H](O)[C@@H](C)O[C@@H](OC(=O)[C@]23CCC(C)(C)C[C@H]2C2=CC[C@@H]4[C@@]5(C)CC[C@H](O[C@H]6O[C@H](C(=O)O)[C@@H](O)[C@H](O[C@@H]7OC[C@@H](O)[C@H](O)[C@H]7O)[C@H]6O[C@@H]6O[C@H](CO)[C@H](O)[C@H](O)[C@H]6O)[C@@](C)(C=O)[C@@H]5CC[C@@]4(C)[C@]2(C)C[C@H]3O)[C@@H]1O[C@@H]1O[C@@H](C)[C@H](O[C@@H]2OC[C@@H](O)[C@H](O[C@@H]3OCC(O)(O)[C@H]3O)[C@H]2O)[C@@H](O[C@@H]2O[C@H](CO)[C@@H](O)[C@H](O)[C@H]2O)[C@H]1O)OC(=O)CC(O)CC(O[C@@H]1O[C@@H](CO)[C@H](O)[C@H]1O[C@@H]1O[C@@H](C)[C@H](O)[C@@H](O)[C@H]1O)C(C)CC (stereo in doubt; form 1) [listing 2 of 2 here]
Activity [4]: inactive | Activity [6]: Active | Activity [19]: Active | Activity [20]: inactive
